Source: US9540323B2 (BRISTOL-MYERS SQUIBB COMPANY, priority 2012, dated 2017)
Where a name gives a salt, the structure may show the parent alone.

Legend:
[1] = target: cloned human P2Y1 receptors (Homo sapiens (Human), UniProt P47900); assay: Binding Assay B - Scintillation Proximity Assay (SPA) for P2Y1 binding, [33P] 2MeS-ADP; conditions: SPA, 0.3 nM [33P] 2MeS-ADP, Cheng-Prusoff; read-out: P2Y1 Ki (nM) using binding assay B
Description: Binding Assay B—Scintillation Proximity Assay (SPA) for P2Y1 Binding
A SPA membrane binding assay was used to identify inhibitors of [^33P] […] Reactions were allowed to proceed to completion at room temperature for 1 hour followed by centrifugation of the plate for 5 min. About 40 μL of the aqueous solution was aspirated. Plates were sealed and the [^33P]

[2] = test system: human platelet rich plasma (PRP); assay: ADP induced platelet aggregation assay; conditions: Homo sapiens, Platelet, 5 min, read-out: PA IC50 (μM) @ 10 μM ADP, human PRP, 10 μM ADP, AUC at 5 minute

cloned human P2Y1 receptors, sequence (P47900 whole entry): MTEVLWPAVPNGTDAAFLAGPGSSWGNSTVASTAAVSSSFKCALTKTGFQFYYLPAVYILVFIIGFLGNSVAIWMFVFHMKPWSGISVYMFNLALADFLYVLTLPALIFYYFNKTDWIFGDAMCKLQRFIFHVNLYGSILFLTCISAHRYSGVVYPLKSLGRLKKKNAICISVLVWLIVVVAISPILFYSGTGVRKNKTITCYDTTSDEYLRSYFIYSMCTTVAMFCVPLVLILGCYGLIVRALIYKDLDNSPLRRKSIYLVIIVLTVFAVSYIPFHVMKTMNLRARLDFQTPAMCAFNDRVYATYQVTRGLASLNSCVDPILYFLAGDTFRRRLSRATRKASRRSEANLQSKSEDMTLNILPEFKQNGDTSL

Q: With `Cc1ccnc2oc(-c3ccc(O)c4c3C(C)(C)CN4c3ccccc3NC(=O)Nc3ccc(OC(F)(F)F)cc3)nc12` [Example 103, 1-(2-(7-Hydroxy-3,3-dimethyl-4-(7-methyloxazolo[5,4-b]pyridin-2-yl)indolin-1-yl)phenyl)-3-(4-(trifluoromethoxy)phenyl)urea] as the molecule, how does the Ki [1] read?
A: 11.1 nM

Q: And the IC50 [2]?
A: 1.03 µM

Q: For `CC1(C)CN(c2ccccc2NC(=O)Nc2ccc(OC(F)(F)F)cc2)c2c(O)ccc(C3=NC(C(C)(C)C)CO3)c21` (stereo not drawn) [Example 104, 1-(2-(4-(4-tert-Butyl-4,5-dihydrooxazol-2-yl)-7-hydroxy-3,3-dimethylindolin-1-yl)phenyl)-3-(4-(trifluoromethoxy)phenyl)urea], which Ki [1] is on record?
A: 9.1 nM

Q: And the IC50 [2]?
A: 0.46 µM

Q: With `CC1(C)CN(c2ccccc2NC(=O)Nc2ccc(OC(F)(F)F)cc2)c2c(O)ccc(C3=NCC(C(F)(F)F)O3)c21` (stereo not drawn) [Example 105, 1-(2-(7-Hydroxy-3,3-dimethyl-4-(5-(trifluoromethyl)-4,5-dihydrooxazol-2-yl)indolin-1-yl)phenyl)-3-(4-(trifluoromethoxy)phenyl)urea] as the molecule, how does the Ki [1] read?
A: 8.8 nM

Q: And the IC50 [2]?
A: 1.57 µM

Q: Which results are given for `CC1(C)CN(c2ccccc2NC(=O)Nc2ccc(OC(F)(F)F)cc2)c2c(O)ccc(-c3nc4c(CO)cccc4o3)c21` [Example 106, 1-(2-(7-Hydroxy-4-(4-(hydroxymethyl)benzo[d]oxazol-2-yl)-3,3-dimethylindolin-1-yl)phenyl)-3-(4-(trifluoromethoxy)phenyl) urea]?
A: Ki [1]: 364 nM; IC50 [2]: 3.28 µM

Q: Which results are given for `CNc1ncnc2oc(-c3ccc(O)c4c3C(C)(C)CN4c3ccccc3NC(=O)Nc3ccc(OC(F)(F)F)cc3)nc12` [Example 107, 1-(2-(7-Hydroxy-3,3-dimethyl-4-(7-(methylamino)oxazolo[5,4-d]pyrimidin-2-yl)indolin-1-yl)phenyl)-3-(4-(trifluoromethoxy)phenyl)urea]?
A: Ki [1]: 24 nM; IC50 [2]: 3.85 µM

Q: Which Ki [1] does the source give for `CC1(C)CN(c2ccccc2NC(=O)Nc2nc3ccc(F)nc3s2)c2c(O)ccc(-c3nc4ccc(Cl)cc4o3)c21` [Example 108, 1-(2-(4-(6-Chlorobenzo[d]oxazol-2-yl)-7-hydroxy-3,3-dimethylindolin-1-yl)phenyl)-3-(5-fluorothiazolo[5,4-b]pyridin-2-yl)urea] here?
A: 9.7 nM

Q: What about the IC50 [2] of the same molecule?
A: 0.19 µM

Q: `CC(C)(C)CN1CCCC1c1ccc(NC(=O)Nc2ccccc2N2CC(C)(C)c3c(-c4nc5ccc(Cl)cc5o4)ccc(O)c32)cc1` (stereo not drawn) [Example 109, 1-(2-(4-(6-Chlorobenzo[d]oxazol-2-yl)-7-hydroxy-3,3-dimethylindolin-1-yl)phenyl)-3-(4-(1-neopentylpyrrolidin-2-yl)phenyl)urea] was tested. Which Ki [1] did it give?
A: 22 nM

Q: What about the IC50 [2] of the same molecule?
A: 0.13 µM

Q: `COc1ccc2nc(NC(=O)Nc3ccccc3N3CC(C)(C)c4c(-c5nc6ccc(Cl)cc6o5)ccc(O)c43)sc2n1` [Example 110, 1-(2-(4-(6-Chlorobenzo[d]oxazol-2-yl)-7-hydroxy-3,3-dimethylindolin-1-yl)phenyl)-3-(5-methoxythiazolo[5,4-b]pyridin-2-yl)urea] was tested. Which Ki [1] did it give?
A: 15.4 nM

Q: And the IC50 [2]?
A: 0.31 µM

Q: Which results are given for `CC1(C)CN(c2ccccc2NC(=O)Nc2ccc(OC(F)(F)F)cc2)c2c(O)ccc(-c3cc(F)nc(F)c3)c21` [Example 111, 1-(2-(4-(2,6-Difluoropyridin-4-yl)-7-hydroxy-3,3-dimethylindolin-1-yl)phenyl)-3-(4-(trifluoromethoxy)phenyl)urea, TFA]?
A: Ki [1]: 7.5 nM; IC50 [2]: 0.14 µM

Q: For `CC1(C)CN(c2ccccc2NC(=O)Nc2ccc(OC(F)(F)F)cc2)c2c(O)ccc(-c3ccnc(F)c3)c21` [Example 112, 1-(2-(4-(2-Fluoropyridin-4-yl)-7-hydroxy-3,3-dimethylindolin-1-yl)phenyl)-3-(4-(trifluoromethoxy)phenyl) urea], which Ki [1] is on record?
A: 9 nM

Q: And the IC50 [2]?
A: 0.43 µM

Q: What does the source list for `CC1(C)CN(c2ccccc2NC(=O)Nc2ccc(OC(F)(F)F)cc2)c2c(O)ccc(-c3ccncc3)c21` [Example 113, 1-(2-(7-Hydroxy-3,3-dimethyl-4-(pyridin-4-yl)indolin-1-yl)phenyl)-3-(4-(trifluoromethoxy)phenyl)urea]?
A: Ki [1]: 5.9 nM; IC50 [2]: 0.35 µM

Q: Which Ki [1] does the source give for `CC1(C)CN(c2ccccc2NC(=O)Nc2ccc(OC(F)(F)F)cc2)c2c(O)ccc(-c3ccncc3Cl)c21` [Example 114, 1-(2-(4-(3-Chloropyridin-4-yl)-7-hydroxy-3,3-dimethylindolin-1-yl)phenyl)-3-(4-(trifluoromethoxy)phenyl) urea] here?
A: 26.5 nM

Q: What about the IC50 [2] of the same molecule?
A: 0.53 µM

Q: How did the Ki [1] turn out when `CC1(C)CN(c2ccccc2NC(=O)Nc2ccc(OC(F)(F)F)cc2)c2c(O)ccc(-c3cncc(Cl)c3)c21` [Example 116, 1-(2-(4-(5-Chloropyridin-3-yl)-7-hydroxy-3,3-dimethylindolin-1-yl)phenyl)-3-(4-(trifluoromethoxy)phenyl) urea] was run?
A: 22.4 nM

Q: What about the IC50 [2] of the same molecule?
A: 0.5 µM

Q: `CC1(C)CN(c2ccccc2NC(=O)Nc2ccc(OC(F)(F)F)cc2)c2c(O)ccc(-c3cncc(F)c3)c21` [Example 117, 1-(2-(4-(5-Fluoropyridin-3-yl)-7-hydroxy-3,3-dimethylindolin-1-yl)phenyl)-3-(4-(trifluoromethoxy)phenyl) urea] was tested. Which Ki [1] did it give?
A: 36 nM

Q: What about the IC50 [2] of the same molecule?
A: 0.51 µM

Q: `Cc1cc(-c2ccc(O)c3c2C(C)(C)CN3c2ccccc2NC(=O)Nc2ccc(OC(F)(F)F)cc2)cnc1F` [Example 119, 1-(2-(4-(6-Fluoro-5-methylpyridin-3-yl)-7-hydroxy-3,3-dimethylindolin-1-yl)phenyl)-3-(4-(trifluoromethoxy)phenyl) urea] was tested. Which Ki [1] did it give?
A: 3.3 nM

Q: What about the IC50 [2] of the same molecule?
A: 0.47 µM

Q: Which results are given for `CC1(C)CN(c2ccccc2NC(=O)Nc2ccc(OC(F)(F)F)cc2)c2c(O)ccc(-c3ccc(C(F)(F)F)nc3)c21` [Example 120, 1-(2-(7-Hydroxy-3,3-dimethyl-4-(6-(trifluoromethyl)pyridin-3-yl)indolin-1-yl)phenyl)-3-(4-(trifluoromethoxy)phenyl)urea,TFA]?
A: Ki [1]: 7.9 nM; IC50 [2]: 0.14 µM

Q: How did the Ki [1] turn out when `CC1(C)CN(c2ccccc2NC(=O)Nc2ccc(OC(F)(F)F)cc2)c2c(O)ccc(-c3ccc(Cl)s3)c21` [Example 121, 1-(2-(4-(5-Chlorothiophen-2-yl)-7-hydroxy-3,3-dimethylindolin-1-yl)phenyl)-3-(4-(trifluoromethoxy)phenyl)urea] was run?
A: 113 nM

Q: What about the IC50 [2] of the same molecule?
A: 0.2 µM

Q: With `CC1(C)CN(c2ccccc2NC(=O)Nc2nc3ccc(Cl)cc3s2)c2c(O)ccc(-c3nc4ccc(F)cc4s3)c21` [Example 128, 1-(6-Chlorobenzo[d]thiazol-2-yl)-3-(2-(4-(6-fluorobenzo[d]thiazol-2-yl)-7-hydroxy-3,3-dimethylindolin-1-yl)phenyl)urea] as the molecule, how does the Ki [1] read?
A: 108 nM

Q: And the IC50 [2]?
A: 0.24 µM

Q: What does the source list for `CC1(C)CN(c2ccccc2NC(=O)Nc2ccc(OC(F)(F)F)cc2)c2c(O)c(F)cc(-c3ccc(C(F)(F)F)cn3)c21` [Example 129, 1-(2-(6-Fluoro-7-hydroxy-3,3-dimethyl-4-(5-(trifluoromethyl)pyridin-2-yl)indolin-1-yl)phenyl)-3-(4-(trifluoromethoxy)phenyl)urea]?
A: Ki [1]: 15.3 nM; IC50 [2]: 0.71 µM

Q: For `CC1(C)CN(c2ccccc2NC(=O)Nc2ccc(OC(F)(F)F)cc2)c2c(O)c(F)cc(-c3nc4ccc(Cl)cc4s3)c21` [Example 130, 1-(2-(4-(6-Chlorobenzo[d]thiazol-2-yl)-6-fluoro-7-hydroxy-3,3-dimethylindolin-1-yl)phenyl)-3-(4-(trifluoromethoxy)phenyl)urea], which Ki [1] is on record?
A: 93.5 nM

Q: What about the IC50 [2] of the same molecule?
A: 1.8 µM

Q: Which Ki [1] does the source give for `CC1(C)CN(c2ccccc2NC(=O)Nc2ccc(OC(F)(F)F)cc2)c2c(O)ccc(-c3cnc(Cl)cn3)c21` [Example 131, 1-(2-(4-(5-Chloropyrazin-2-yl)-7-hydroxy-3,3-dimethylindolin-1-yl)phenyl)-3-(4-(trifluoromethoxy)phenyl)urea] here?
A: 9.1 nM

Q: What about the IC50 [2] of the same molecule?
A: 0.42 µM

Q: What does the source list for `CC1(C)CN(c2ccccc2NC(=O)Nc2ccc(OC(F)(F)F)cc2)c2c(O)ccc(-c3cnccn3)c21` [Example 132, 1-(2-(7-Hydroxy-3,3-dimethyl-4-(pyrazin-2-yl)indolin-1-yl)phenyl)-3-(4-(trifluoromethoxy)phenyl)urea]?
A: Ki [1]: 18.8 nM; IC50 [2]: 1.29 µM

Q: Which Ki [1] does the source give for `CC1(C)CN(c2ccccc2NC(=O)Nc2ccc(OC(F)(F)F)cc2)c2c(O)ccc(-c3ncc(F)cn3)c21` [Example 133, 1-(2-(4-(5-Fluoropyrimidin-2-yl)-7-hydroxy-3,3-dimethylindolin-1-yl)phenyl)-3-(4-(trifluoromethoxy)phenyl)urea] here?
A: 10.2 nM

Q: What about the IC50 [2] of the same molecule?
A: 0.69 µM

Q: With `CC1(C)CN(c2ccccc2NC(=O)Nc2nc3ccc(F)cc3s2)c2c(O)ccc(-c3nc4ccc(Cl)cc4o3)c21` [Example 134, 1-(2-(4-(6-Chlorobenzo[d]oxazol-2-yl)-7-hydroxy-3,3-dimethylindolin-1-yl)phenyl)-3-(6-fluorobenzo[d]thiazol-2-yl)urea] as the molecule, how does the Ki [1] read?
A: 73.8 nM

Q: And the IC50 [2]?
A: 0.19 µM

Q: What does the source list for `CC1(C)CN(c2ccccc2NC(=O)Nc2ccc(OC(F)(F)F)cc2)c2c(O)cc(F)c(-c3ccc(C(F)(F)F)nc3)c21` [Example 135, 1-(2-(5-Fluoro-7-hydroxy-3,3-dimethyl-4-(6-(trifluoromethyl)pyridin-3-yl)indolin-1-yl)phenyl)-3-(4-(trifluoromethoxy)phenyl)urea]?
A: Ki [1]: 8.7 nM; IC50 [2]: 0.15 µM

Q: With `CC1(C)CN(c2ccccc2NC(=O)Nc2ccc(OC(F)(F)F)cc2)c2c(O)cc(F)c(-c3nc4ccc(F)cc4s3)c21` [Example 144, 1-(2-(5-Fluoro-4-(6-fluorobenzo[d]thiazol-2-yl)-7-hydroxy-3,3-dimethylindolin-1-yl)phenyl)-3-(4-(trifluoromethoxy)phenyl)urea] as the molecule, how does the Ki [1] read?
A: 10 nM

Q: What about the IC50 [2] of the same molecule?
A: 0.5 µM

Q: Which Ki [1] does the source give for `CC1(C)CN(c2ccccc2NC(=O)Nc2nc3ccc(F)cc3s2)c2c(O)cc(F)c(-c3nc4ccc(F)cc4s3)c21` [Example 146, 1-(2-(5-Fluoro-4-(6-fluorobenzo[d]thiazol-2-yl)-7-hydroxy-3,3-dimethylindolin-1-yl)phenyl)-3-(6-fluorobenzo[d]thiazol-2-yl)urea] here?
A: 47.2 nM

Q: What about the IC50 [2] of the same molecule?
A: 0.3 µM
